Reference: patent US7115749B2, “Substituted 5-oxo pyrazoles and [1,2,4]triazoles as antiviral agents” (priority 2004, dated 2006)

Target: HCV RNA-dependent RNA polymerase NS5B (Δ21) (Hepatitis C virus genotype 1b, UniProt P26663)
Test: Assay for HCV RNA-dependent RNA polymerase activity (SPA, [3H]-GTP incorporation)
Type: biochemical
Description: Assay for HCV RNA-dependent RNA Polymerase Activity
Inhibitory activity of the present compounds against HCV RNA-dependent RNA polymerase was assayed according to the methods disclosed in U.S. Patent Application U.S.2004/038993, content of which is incorporated herein by reference; and those described in Ferrari, E.; Wright-Minogue, J.; Fang, J. W. S.; Baroudy, B. M.; Lau, J. Y. N.; Hong, Z. J. Virol. 1999, 73, 1649.
Briefly, 50 μl reactions containing 20 mM HEPES (pH 7.3), 7.5 mM DTT, 20 units/ml RNasIN, 0.5 ug/ml biotinylated oligoG12, 5 μg/ml polyC, 5 μM GTP, 20 μCi/ml [^3H]-GTP, 10 mM MgCl2, 60 mM NaCl, 100 μg/ml BSA, and 50 nM NS5B (Δ21) were incubated at room temperature for three hours in 96-well plates with or without test compounds. Assay was terminated by the addition of 50 μl 10 mg/ml streptavidin-coated SPA beads supplemented with 100 mM EDTA, and the incorporation of labeled GTP determined by a TopCount Scintillation Counter. IC50 values were calculated from single experiments using 11 serial 2-fold dilutions (0.05–50 μM), and data were considered reliable only when the IC50 value of a positive internal control was within standard deviation range.

Chain of HCV RNA-dependent RNA polymerase NS5B (Δ21) (P26663 2420-2989, stated change not applied): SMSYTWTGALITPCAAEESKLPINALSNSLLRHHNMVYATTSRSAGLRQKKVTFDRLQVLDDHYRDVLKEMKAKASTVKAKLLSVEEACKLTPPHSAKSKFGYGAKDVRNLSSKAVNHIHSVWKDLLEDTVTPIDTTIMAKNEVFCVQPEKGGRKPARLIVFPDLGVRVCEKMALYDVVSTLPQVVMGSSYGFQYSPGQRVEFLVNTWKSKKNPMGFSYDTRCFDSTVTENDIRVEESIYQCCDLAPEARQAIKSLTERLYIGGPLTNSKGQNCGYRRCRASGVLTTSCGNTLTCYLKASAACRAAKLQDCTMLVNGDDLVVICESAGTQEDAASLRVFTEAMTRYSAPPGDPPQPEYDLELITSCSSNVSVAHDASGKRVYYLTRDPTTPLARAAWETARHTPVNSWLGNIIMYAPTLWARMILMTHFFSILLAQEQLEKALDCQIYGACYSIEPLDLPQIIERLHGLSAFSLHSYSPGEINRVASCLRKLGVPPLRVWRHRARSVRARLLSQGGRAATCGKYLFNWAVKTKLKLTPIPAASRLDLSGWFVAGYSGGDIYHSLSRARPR

| SMILES | IC50 |
| --- | --- |
| Nc1nc2ccc(CNC(=O)Cn3nc(C(=O)O)cc3OCc3ccccc3-c3ccc(C(F)(F)F)cc3)cc2s1 [Compound 62] | > 12.5 µM |
| O=C(Cn1nc(C(=O)O)cc1OCc1ccccc1-c1ccc(C(F)(F)F)cc1)NCCCc1ccccc1 [Compound 63] | 12 µM |
| O=C(Cn1nc(C(=O)O)cc1OCc1ccsc1)N[C@H]1CCCC[C@@H]1OCc1ccccc1 [Compound 64] | > 12.5 µM |
| O=C(Cn1nc(C(=O)O)cc1OCc1cccnc1)N[C@H]1CCCC[C@@H]1OCc1ccccc1 [Compound 65, 1-[(2-benzyloxy-cyclohexylcarbamoyl)-methyl]-5-(pyridin-3-ylmethoxy)-1H-pyrazole-3-carboxylic acid] | > 12.5 µM |
| O=C(Cn1nc(-c2nnn[nH]2)cc1OCc1ccccc1-c1ccc(C(F)(F)F)cc1)N[C@H]1CCCC[C@@H]1OCc1ccccc1 [Compound 66, N-(2-benzyloxy-cyclohexyl)-2-[3-(1H-tetrazol-5-yl)-5-(4′-trifluoromethyl-biphenyl-2-ylmethoxy)-pyrazol-1-yl]-acetamide] | 0.057 µM |
